Data on 4 compounds can be found in patent US20190083521A1, “COMBINATION THERAPY FOR TREATING CANCER” (Epizyme, Inc., priority 2014, published 2019).

Test [1] deals with OCI-AML-4 (MLL-ENL) cells. As to the kind of experiment: Example 7 retest: EPZ-5676 pre-treatment, second compound 72 h, Cell Titer Glo, growth inhibition. The test is classed as cell-based. To be noted: for Combination result with EPZ-5676, Retest: 300 nM EPZ-5676 pre-treatment vs DMSO. On the procedure: (§1) Cells were then treated with a second compound for 72 hours. After this time, plates were developed for endpoint analysis using Cell Titer Glo to measure ATP content, which is used as an indicator of cell viability.
(§2) “N/D” means the GI100 of the second compound could not be determined for both conditions and “-” means not tested.
(§3) Growth Inhibition (GI) as a measure of cell viability: The cell viability of vehicle was measured at the time of dosing the second agent (T0) and after seventy-two hours (T72). […] A GI 200% represents complete death of all cells in the culture well. Compounds reaching an activity plateau of GI 200% are considered cytotoxic. GI is calculated by applying the following test and equation: […]
On the technique in general: ATP-based viability assays read luminescence as a measure of living cells.

Another test has as its system THP-1 (MLL-AF9) cells. Described as above. To be noted: NRAS G12D. Set-up: GI100: unit not given here. The class given is cell-based. On the procedure:
Cells were split using EPZ-5676 or DMSO containing growth media and further incubated for an additional 3-day pre-treatment time. Cells were finally seeded in growth media containing EPZ-5676 or DMSO in 96-well plates. Cells were then treated with a second compound for 72 hours. After this time, plates were developed for endpoint analysis using Cell Titer Glo to measure ATP content, which is used as an indicator of cell viability.
as §2
(§4) Growth Inhibition (GI) as a measure of cell viability: The cell viability of vehicle was measured at the time of dosing the second agent (T0) and after seventy-two hours (T72). A GI reading of 0% represents no growth inhibition—cells treated with test compound as compared to T72 vehicle signals were measured. […] A GI 200% represents complete death of all cells in the culture well. Compounds reaching an activity plateau of GI 200% are considered cytotoxic. GI is calculated by applying the following test and equation: […]

Test [2] deals with SKM-1 (non-MLLr) cells. The test is described as follows: Example 7 primary screen: 300 nM EPZ-5676 pre-treatment, second compound 72 h, ATPLite, GI100 shift. To be noted: SKM-1 (non-MLLr); 300 nM EPZ-5676 pre-treatment vs DMSO. The class given is cell-based, human. On the procedure: (§5) Cells were split using EPZ-5676 or DMSO containing growth media and further incubated for an additional 3-day pre-treatment time. Cells were finally seeded in growth media containing EPZ-5676 or DMSO in 384-well plates at 500 cell/well density. Cells were then equilibrated in incubators for 24 hours before treatment with a second compound. Treated assay plates were incubated with a second compound for 72 hours. After this time, plates were developed for endpoint analysis using ATPLite to measure ATP content, which is used as an indicator of cell viability.
as §2, §4

Test [3] has as its system MOLM-13 (MLL-AF9) cells. The description is as above. The class given is cell-based, human. To be noted: MOLM-13 (MLL-AF9); 300 nM EPZ-5676 pre-treatment vs DMSO. On the procedure: as §5, §2, §4
Test [4] has as its system SKM-1 (non-MLLr) cells. The test is described as follows: Example 7 retest: EPZ-5676 pre-treatment, second compound 72 h, Cell Titer Glo, growth inhibition. The test is classed as cell-based, human. Set-up: GI100: unit not given here. To be noted: for Combination result with EPZ-5676, Retest: 300 nM EPZ-5676 pre-treatment vs DMSO. On the procedure:
as §1, §2, §3

Test [5] concerns MOLM-13 (MLL-AF9) cells. Described as above. The class given is cell-based, human. Set-up: GI100: unit not given here. To be noted: for GI50: Homo sapiens; for Combination result with EPZ-5676, Retest: 150 nM EPZ-5676 pre-treatment vs DMSO. On the procedure:
as §1, §2, §3

Test [6] deals with OCI-AML-4 (MLL-ENL) cells. As to the kind of experiment: Example 7 primary screen: 300 nM EPZ-5676 pre-treatment, second compound 72 h, ATPLite, GI100 shift. The test is classed as cell-based. To be noted: OCI-AML-4 (MLL-ENL); 300 nM EPZ-5676 pre-treatment vs DMSO. On the procedure: as §5, §2, §4
The test system of a further test is ML-2 (MLL-AF6) cells. The test is described as follows: Example 7 retest: EPZ-5676 pre-treatment, second compound 72 h, Cell Titer Glo, growth inhibition. The class given is cell-based. Also noted: GI100: unit not given here. On the procedure:
as §1, §2, §3

The next test deals with RS4-11 (MLL-AF4) cells. Described as above. The class given is cell-based. Set-up: GI100: unit not given here. To be noted: for GI50: Homo sapiens. On the procedure:
as §1, §2, §3

Setting [7] is: OCI-AML-4 (MLL-ENL), NRAS Q61R (het).
Where [8] appears, read: OCI-AML-4 (MLL-ENL), NRAS Q61R (het), second compound, 72 h.
The mark [9] stands for this setting: SKM-1 (non-MLLr), KRAS K117N (homo).
Setting [10] is: SKM-1 (non-MLLr), KRAS K117N (homo), second compound, 72 h.
The mark [11] stands for this setting: MOLM-13 (MLL-AF9), Ras mutation status: None known, second compound, 72 h.
Where [12] appears, read: MOLM-13 (MLL-AF9), Ras mutation status: None known.
Setting [13] is: ML-2 (MLL-AF6), KRAS A146T (het), second compound, 72 h.
Where [14] appears, read: RS4-11 (MLL-AF4), Ras mutation status: None known, second compound, 72 h.

Like-named read-outs stand apart in the source and are kept apart here. A value given as a limit tells only on which side of the number the result lay.

With `CC(=O)Nc1cccc(-n2c(=O)n(C3CC3)c(=O)c3c(Nc4ccc(I)cc4F)n(C)c(=O)c(C)c32)c1` [Trametinib], the GI100 was 0.009 in test [1]; 0.004 in the test with SKM-1 (non-MLLr) cells [4]; 0.03 in the test with MOLM-13 (MLL-AF9) cells [5]; 0.001 with ML-2 (MLL-AF6) cells; over 10 in the test with RS4-11 (MLL-AF4) cells. The “Combination result with EPZ-5676, Retest” value (in test [1] (OCI-AML-4 (MLL-ENL)); in the test on SKM-1 (non-MLLr) cells [4] (SKM-1 (non-MLLr)); with MOLM-13 (MLL-AF9) cells [5] (MOLM-13 (MLL-AF9))) was “Synergy (considered synergistic if the GI100 (Growth inhibition 100) value of the second compound decreased by 2-fold or more when EPZ-5676 was added as compared to the DMSO control)” throughout. Besides, the “Result (combination with EPZ-5676)” value in test [1] (setting [7]) is on record as “Synergy (considered synergistic if the GI100 (Growth inhibition 100) value of the second compound decreased by 2-fold or more when EPZ-5676 was added as compared to the DMSO control)”; with SKM-1 (non-MLLr) cells [4] (setting [9]), “Synergy (considered synergistic if the GI100 (Growth inhibition 100) value of the second compound decreased by 2-fold or more when EPZ-5676 was added as compared to the DMSO control)”; with MOLM-13 (MLL-AF9) cells [5] (setting [12]), “Synergy (considered synergistic if the GI100 (Growth inhibition 100) value of the second compound decreased by 2-fold or more when EPZ-5676 was added as compared to the DMSO control)”; in the test on ML-2 (MLL-AF6) cells (ML-2 (MLL-AF6), KRAS A146T (het)), “Synergy (considered synergistic if the GI100 (Growth inhibition 100) value of the second compound decreased by 2-fold or more when EPZ-5676 was added as compared to the DMSO control)”. The GI50 (commonly the concentration at which growth is held to half of that of the control) in test [1] (setting [8]) is 2 nM; in the test with THP-1 (MLL-AF9) cells, 2 nM; with SKM-1 (non-MLLr) cells [4] (setting [10]) it was 1 nM; with MOLM-13 (MLL-AF9) cells [5] (setting [11]), 10 nM; with ML-2 (MLL-AF6) cells (setting [13]), 1 nM; in the test on RS4-11 (MLL-AF4) cells (setting [14]), over 10 µM. The “Combination result with EPZ-5676, Primary screen” value (with SKM-1 (non-MLLr) cells [2]; with MOLM-13 (MLL-AF9) cells [3]; in test [6]) was “Synergy (considered synergistic if the GI100 (Growth inhibition 100) value of the second compound decreased by 2-fold or more when EPZ-5676 was added as compared to the DMSO control)” in each case.

As to `Cn1cnc2c(F)c(Nc3ccc(Br)cc3Cl)c(C(=O)NOCCO)cc21` [Selumetinib (AZD6244), Selumetinib], the “Combination result with EPZ-5676, Retest” value (in [1] (OCI-AML-4 (MLL-ENL)); with SKM-1 (non-MLLr) cells [4] (SKM-1 (non-MLLr)); with MOLM-13 (MLL-AF9) cells [5] (MOLM-13 (MLL-AF9))) was “Synergy (considered synergistic if the GI100 (Growth inhibition 100) value of the second compound decreased by 2-fold or more when EPZ-5676 was added as compared to the DMSO control)” each time. Further, the “Result (combination with EPZ-5676)” value (in test [1] (setting [7]); in the test with SKM-1 (non-MLLr) cells [4] (setting [9]); in the test on MOLM-13 (MLL-AF9) cells [5] (setting [12])) was “Synergy (considered synergistic if the GI100 (Growth inhibition 100) value of the second compound decreased by 2-fold or more when EPZ-5676 was added as compared to the DMSO control)” each time. Also, the GI50 is 116 nM in test [1] (setting [8]); 160 nM in the test with THP-1 (MLL-AF9) cells; 20 nM with SKM-1 (non-MLLr) cells [4] (setting [10]); 1250 nM in the test on MOLM-13 (MLL-AF9) cells [5] (setting [11]); 40 nM with ML-2 (MLL-AF6) cells (setting [13]); over 10 µM in the test with RS4-11 (MLL-AF4) cells (setting [14]). Further, the GI100 was 3.169 in test [1] (setting [8]); over 10 in the test on THP-1 (MLL-AF9) cells; 0.12 in the test on SKM-1 (non-MLLr) cells [4] (setting [10]); 7.28 with MOLM-13 (MLL-AF9) cells [5] (setting [11]); 0.93 with ML-2 (MLL-AF6) cells (setting [13]); over 10 in the test with RS4-11 (MLL-AF4) cells (setting [14]). For the same compound, the “Combination result with EPZ-5676, Primary screen” value (with SKM-1 (non-MLLr) cells [2]; with MOLM-13 (MLL-AF9) cells [3]; in test [6]) was “Synergy (considered synergistic if the GI100 (Growth inhibition 100) value of the second compound decreased by 2-fold or more when EPZ-5676 was added as compared to the DMSO control)” throughout.

As for `CNC(=O)c1cc(Oc2ccc(NC(=O)Nc3ccc(Cl)c(C(F)(F)F)c3)cc2)ccn1` [Sorafenib], the “Combination result with EPZ-5676, Primary screen” value in the test on MOLM-13 (MLL-AF9) cells [3] is “Synergy (considered synergistic if the GI100 (Growth inhibition 100) value of the second compound decreased by 2-fold or more when EPZ-5676 was added as compared to the DMSO control)”. The “Combination result with EPZ-5676, Retest” value in the test on MOLM-13 (MLL-AF9) cells [5] (MOLM-13 (MLL-AF9)) is reported as “Synergy (considered synergistic if the GI100 (Growth inhibition 100) value of the second compound decreased by 2-fold or more when EPZ-5676 was added as compared to the DMSO control)”.

As for `Cn1c(Nc2ccc(C(F)(F)F)cc2)nc2cc(Oc3ccnc(-c4ncc(C(F)(F)F)[nH]4)c3)ccc21` [RAF265], the “Combination result with EPZ-5676, Primary screen” value in the test on MOLM-13 (MLL-AF9) cells [3] is given as “Synergy (considered synergistic if the GI100 (Growth inhibition 100) value of the second compound decreased by 2-fold or more when EPZ-5676 was added as compared to the DMSO control)”.
